Experimental findings from ChEMBL document CHEMBL6127065, “Design and Synthesis of c-Met and HDAC Dual Inhibitors for the Treatment of Breast Cancer” (ACS Med Chem Lett, 2024) are described below.

pIC50: −log10 of the molar value.

Sequence of Hepatocyte growth factor receptor (P08581 whole entry): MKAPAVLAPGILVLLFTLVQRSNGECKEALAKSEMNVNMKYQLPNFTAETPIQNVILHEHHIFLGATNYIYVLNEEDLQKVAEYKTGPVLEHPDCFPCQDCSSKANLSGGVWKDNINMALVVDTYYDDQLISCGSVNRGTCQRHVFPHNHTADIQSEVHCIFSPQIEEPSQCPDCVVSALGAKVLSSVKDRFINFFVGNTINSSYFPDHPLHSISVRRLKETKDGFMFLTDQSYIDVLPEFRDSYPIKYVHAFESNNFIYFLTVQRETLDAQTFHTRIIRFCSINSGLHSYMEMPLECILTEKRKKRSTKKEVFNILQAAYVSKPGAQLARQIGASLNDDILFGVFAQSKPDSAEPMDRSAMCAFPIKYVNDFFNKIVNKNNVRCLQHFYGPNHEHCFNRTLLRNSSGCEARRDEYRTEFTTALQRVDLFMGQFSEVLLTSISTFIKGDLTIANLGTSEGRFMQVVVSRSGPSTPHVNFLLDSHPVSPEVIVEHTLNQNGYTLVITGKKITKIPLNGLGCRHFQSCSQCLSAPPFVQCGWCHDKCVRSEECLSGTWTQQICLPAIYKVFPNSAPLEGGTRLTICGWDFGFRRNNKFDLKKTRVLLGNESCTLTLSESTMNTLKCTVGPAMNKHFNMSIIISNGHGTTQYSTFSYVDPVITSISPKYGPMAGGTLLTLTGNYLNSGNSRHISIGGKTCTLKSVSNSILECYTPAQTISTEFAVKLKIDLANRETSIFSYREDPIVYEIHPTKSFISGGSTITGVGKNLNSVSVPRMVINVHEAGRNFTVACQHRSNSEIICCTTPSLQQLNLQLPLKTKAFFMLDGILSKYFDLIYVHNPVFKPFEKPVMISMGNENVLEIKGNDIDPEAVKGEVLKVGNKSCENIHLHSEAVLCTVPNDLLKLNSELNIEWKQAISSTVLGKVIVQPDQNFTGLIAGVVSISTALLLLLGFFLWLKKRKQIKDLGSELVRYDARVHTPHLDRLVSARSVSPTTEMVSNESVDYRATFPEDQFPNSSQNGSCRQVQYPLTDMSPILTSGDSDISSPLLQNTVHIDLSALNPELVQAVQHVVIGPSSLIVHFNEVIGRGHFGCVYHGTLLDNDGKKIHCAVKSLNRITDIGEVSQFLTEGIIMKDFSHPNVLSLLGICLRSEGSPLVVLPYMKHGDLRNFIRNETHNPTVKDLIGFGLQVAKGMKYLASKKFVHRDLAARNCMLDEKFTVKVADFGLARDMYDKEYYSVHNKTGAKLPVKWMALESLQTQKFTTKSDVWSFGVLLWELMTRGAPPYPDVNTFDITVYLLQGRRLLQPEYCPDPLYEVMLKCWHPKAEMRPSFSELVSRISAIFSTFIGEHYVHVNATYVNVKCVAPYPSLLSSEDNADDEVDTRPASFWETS

The first experiment addresses Hepatocyte growth factor receptor (Homo sapiens, UniProt P08581). In words: Inhibition of c-Met (unknown origin) using Poly(Glu:Tyr)(4:1) and ATP as substrate incubated for 45 mins by Kinase-Glo Max reagent based luminescence analysis.
Settings: not given
For orientation: Kinase-Glo reads ATP consumption through a luciferase reaction.
`C[C@@H](c1ccc2nccn2c1)n1nnc2ncc(-c3cnn(C)c3)nc21` [SAVOLITINIB] had a pIC50 of 8.85.

The next experiment relates to MDA-MB-453. In words: Antiproliferative activity against human MDA-MB-453 cells assessed as reduction in cell growth incubated for 72 hrs by MTT assay. The note with it: MDA-MB-453, 72 h. (Tetrazolium dyes change colour on reduction, which living cells bring about.)
`CC(c1ccc2ncccc2c1)n1nnc2ncc(N3CCN(CCCC(=O)Nc4ccccc4N)CC3)nc21` (stereo not drawn): the negative logarithm of the IC50 (pIC50) is 4.64.
With `CC(c1ccc2ncccc2c1)n1nnc2ncc(N3CCN(Cc4ccc(C(=O)Nc5ccccc5N)cc4)CC3)nc21` (stereo not drawn), the pIC50 is 4.80.
On the same count and under the same terms, then `CC(c1ccc2ncccc2c1)n1nnc2ncc(N3CCN(CCC(=O)Nc4ccc(F)cc4N)CC3)nc21` (stereo not drawn), with 4.56; and `CC(c1ccc2ncccc2c1)n1nnc2ncc(N3CCN(CCCC(=O)Nc4ccc(F)cc4N)CC3)nc21` (stereo not drawn), with 4.51; and `CC(c1ccc2ncccc2c1)n1nnc2ncc(N3CCN(Cc4ccc(CC(=O)Nc5ccc(F)cc5N)cc4)CC3)nc21` (stereo not drawn), with 5.23.
For the molecule `Nc1cc(F)ccc1NC(=O)c1ccc(CNC(=O)/C=C/c2cccnc2)cc1` [TUCIDINOSTAT], the negative logarithm of the IC50 (pIC50) is 6.20.
In the case of `CC(c1ccc2ncccc2c1)n1nnc2ncc(N3CCN(CC(=O)Nc4ccc(F)cc4N)CC3)nc21` (stereo not drawn), the pIC50 was 4.66.
Consider `CC(c1ccc2ncccc2c1)n1nnc2ncc(N3CCN(CCC(=O)Nc4ccccc4N)CC3)nc21` (stereo not drawn), for which the pIC50 is 4.51.
Consider `CC(c1ccc2ncccc2c1)n1nnc2ncc(N3CCN(CC(=O)Nc4ccccc4N)CC3)nc21` (stereo not drawn), for which the pIC50 is 4.56.
On the same count and under the same terms, then `CC(c1ccc2ncccc2c1)n1nnc2ncc(N3CCN(Cc4ccc(C(=O)Nc5ccc(F)cc5N)cc4)CC3)nc21` (stereo not drawn), with 5.20.
Regarding `CC(c1ccc2ncccc2c1)n1nnc2ncc(N3CCN(Cc4ccc(CC(=O)Nc5ccccc5N)cc4)CC3)nc21` (stereo not drawn), the pIC50 is 5.05.
The same measure, in the same setting: under `C[C@@H](Oc1cc(-c2cnn(C3CCNCC3)c2)cnc1N)c1c(Cl)ccc(F)c1Cl` [CRIZOTINIB] stands 5.33.

A further experiment has as its system MDA-MB-468. In words: Antiproliferative activity against human MDA-MB-468 cells assessed as reduction in cell growth incubated for 72 hrs by MTT assay. The note with it: MDA-MB-468, 72 h.
For `CC(c1ccc2ncccc2c1)n1nnc2ncc(N3CCN(CCCC(=O)Nc4ccccc4N)CC3)nc21` (stereo not drawn), the pIC50 was 4.72.
Same read-out and setting: under `CC(c1ccc2ncccc2c1)n1nnc2ncc(N3CCN(Cc4ccc(C(=O)Nc5ccccc5N)cc4)CC3)nc21` (stereo not drawn) stands 4.89; under `CC(c1ccc2ncccc2c1)n1nnc2ncc(N3CCN(CCC(=O)Nc4ccc(F)cc4N)CC3)nc21` (stereo not drawn), 5.04; under `CC(c1ccc2ncccc2c1)n1nnc2ncc(N3CCN(CCCC(=O)Nc4ccc(F)cc4N)CC3)nc21` (stereo not drawn), 4.92.
In the case of `CC(c1ccc2ncccc2c1)n1nnc2ncc(N3CCN(Cc4ccc(CC(=O)Nc5ccc(F)cc5N)cc4)CC3)nc21` (stereo not drawn), the negative-log IC50 (pIC50) is 5.41.
`Nc1cc(F)ccc1NC(=O)c1ccc(CNC(=O)/C=C/c2cccnc2)cc1` [TUCIDINOSTAT]: the negative logarithm of the IC50 (pIC50) is 5.46.
In the case of `CC(c1ccc2ncccc2c1)n1nnc2ncc(N3CCN(CC(=O)Nc4ccc(F)cc4N)CC3)nc21` (stereo not drawn), the negative-log IC50 (pIC50) is 4.91.
For `CC(c1ccc2ncccc2c1)n1nnc2ncc(N3CCN(CCC(=O)Nc4ccccc4N)CC3)nc21` (stereo not drawn), the pIC50 was 4.66.
As to `CC(c1ccc2ncccc2c1)n1nnc2ncc(N3CCN(CC(=O)Nc4ccccc4N)CC3)nc21` (stereo not drawn), the pIC50 is 4.85.
With `CC(c1ccc2ncccc2c1)n1nnc2ncc(N3CCN(Cc4ccc(C(=O)Nc5ccc(F)cc5N)cc4)CC3)nc21` (stereo not drawn), the pIC50 is 5.39.
For the molecule `CC(c1ccc2ncccc2c1)n1nnc2ncc(N3CCN(Cc4ccc(CC(=O)Nc5ccccc5N)cc4)CC3)nc21` (stereo not drawn), the pIC50 was 5.20.
The same measure, in the same setting: then `C[C@@H](Oc1cc(-c2cnn(C3CCNCC3)c2)cnc1N)c1c(Cl)ccc(F)c1Cl` [CRIZOTINIB], with 5.58.

The subject of the next experiment is MDA-MB-231. In words: Antiproliferative activity against human MDA-MB-231 cells assessed as reduction in cell growth incubated for 72 hrs by MTT assay. To be noted: MDA-MB-231, 72 h.
Take `CC(c1ccc2ncccc2c1)n1nnc2ncc(N3CCN(CCCC(=O)Nc4ccccc4N)CC3)nc21` (stereo not drawn): the pIC50 is 4.64.
With `CC(c1ccc2ncccc2c1)n1nnc2ncc(N3CCN(Cc4ccc(C(=O)Nc5ccccc5N)cc4)CC3)nc21` (stereo not drawn), the negative logarithm of the IC50 (pIC50) is 4.81.
As for `CC(c1ccc2ncccc2c1)n1nnc2ncc(N3CCN(CCC(=O)Nc4ccc(F)cc4N)CC3)nc21` (stereo not drawn), the pIC50 is 4.64.
As to `CC(c1ccc2ncccc2c1)n1nnc2ncc(N3CCN(CCCC(=O)Nc4ccc(F)cc4N)CC3)nc21` (stereo not drawn), the pIC50 was 4.57.
As for `CC(c1ccc2ncccc2c1)n1nnc2ncc(N3CCN(Cc4ccc(CC(=O)Nc5ccc(F)cc5N)cc4)CC3)nc21` (stereo not drawn), the pIC50 was 5.19.
With `Nc1cc(F)ccc1NC(=O)c1ccc(CNC(=O)/C=C/c2cccnc2)cc1` [TUCIDINOSTAT], the negative logarithm of the IC50 (pIC50) was 5.76.
For `CC(c1ccc2ncccc2c1)n1nnc2ncc(N3CCN(CC(=O)Nc4ccc(F)cc4N)CC3)nc21` (stereo not drawn), the negative-log IC50 (pIC50) is 4.73.
For the molecule `CC(c1ccc2ncccc2c1)n1nnc2ncc(N3CCN(CCC(=O)Nc4ccccc4N)CC3)nc21` (stereo not drawn), the pIC50 was 4.52.
As to `CC(c1ccc2ncccc2c1)n1nnc2ncc(N3CCN(CC(=O)Nc4ccccc4N)CC3)nc21` (stereo not drawn), the pIC50 is 4.58.
Regarding `CC(c1ccc2ncccc2c1)n1nnc2ncc(N3CCN(Cc4ccc(C(=O)Nc5ccc(F)cc5N)cc4)CC3)nc21` (stereo not drawn), the pIC50 is 5.23.
For the molecule `CC(c1ccc2ncccc2c1)n1nnc2ncc(N3CCN(Cc4ccc(CC(=O)Nc5ccccc5N)cc4)CC3)nc21` (stereo not drawn), the pIC50 was 5.06.
Take `C[C@@H](Oc1cc(-c2cnn(C3CCNCC3)c2)cnc1N)c1c(Cl)ccc(F)c1Cl` [CRIZOTINIB]: the pIC50 was 5.31.

A further experiment addresses T1, Protein deacetylase HDAC6 (Homo sapiens) (UniProt Q9UBN7).
T1 sequence (whole entry): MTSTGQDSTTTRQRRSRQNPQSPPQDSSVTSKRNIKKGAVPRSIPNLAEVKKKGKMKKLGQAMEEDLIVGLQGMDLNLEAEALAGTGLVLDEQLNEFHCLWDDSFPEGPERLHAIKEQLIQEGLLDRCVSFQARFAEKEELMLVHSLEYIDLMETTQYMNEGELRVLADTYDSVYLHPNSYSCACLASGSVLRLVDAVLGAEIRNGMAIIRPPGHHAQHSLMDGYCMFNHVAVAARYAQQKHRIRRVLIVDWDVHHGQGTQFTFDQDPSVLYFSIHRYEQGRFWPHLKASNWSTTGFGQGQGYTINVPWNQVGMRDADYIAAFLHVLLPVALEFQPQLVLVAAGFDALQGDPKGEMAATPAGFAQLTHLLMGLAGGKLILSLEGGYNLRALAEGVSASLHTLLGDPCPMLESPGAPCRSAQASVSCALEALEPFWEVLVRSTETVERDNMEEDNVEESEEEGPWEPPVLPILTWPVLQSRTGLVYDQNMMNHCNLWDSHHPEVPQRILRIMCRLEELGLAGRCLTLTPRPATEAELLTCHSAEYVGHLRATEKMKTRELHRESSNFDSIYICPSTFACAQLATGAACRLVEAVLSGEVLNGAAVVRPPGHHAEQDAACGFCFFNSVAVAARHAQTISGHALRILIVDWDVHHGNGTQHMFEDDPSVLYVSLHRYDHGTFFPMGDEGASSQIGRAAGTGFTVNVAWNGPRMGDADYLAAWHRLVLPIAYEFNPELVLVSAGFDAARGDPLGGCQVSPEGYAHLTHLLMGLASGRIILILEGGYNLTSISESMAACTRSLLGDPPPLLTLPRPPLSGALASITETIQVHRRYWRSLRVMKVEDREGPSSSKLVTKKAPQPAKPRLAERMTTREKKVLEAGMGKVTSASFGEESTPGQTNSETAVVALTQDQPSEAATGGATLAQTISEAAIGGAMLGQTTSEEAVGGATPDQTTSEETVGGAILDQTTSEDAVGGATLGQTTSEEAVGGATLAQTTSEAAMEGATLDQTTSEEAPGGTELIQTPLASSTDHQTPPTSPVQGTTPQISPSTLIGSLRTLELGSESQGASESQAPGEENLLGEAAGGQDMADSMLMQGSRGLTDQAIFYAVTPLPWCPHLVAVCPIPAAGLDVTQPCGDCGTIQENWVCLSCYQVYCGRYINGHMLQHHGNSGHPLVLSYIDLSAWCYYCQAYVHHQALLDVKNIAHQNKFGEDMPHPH
To be noted: dose 1000.0 nM, time 60.0 min.
Molecule `Nc1cc(F)ccc1NC(=O)c1ccc(CNC(=O)/C=C/c2cccnc2)cc1` [TUCIDINOSTAT] gave an inhibition of 2.6%.

Broadly, the pIC50 is −log10 of the IC50, conventionally taken in molar units. In general, inhibition refers to the drop in the measured response relative to a control, in per cent. A high value points to a strong effect.
